Laboratory results taken from patent US20220151962A1, “NOVEL INHIBITORS OF HISTONE DEACETYLASE 10” (Deutsches Krebsforschungszentrum, priority 2019, published 2022).
Values joined by “and” are separate entries in the source; they are usually repeats but may differ in a detail not shown here. Equal values may be shown once. Read-outs that look alike come from different tables or passages of the source.

Key:
HDAC8 [1] = target: T1, HDAC8 (Homo sapiens, UniProt Q9BY41); experiment: HDAC8 (FDL) Fluor de Lys assay; assay type: biochemical; parameters: obtained from C; Romier (academic laboratory, not a vendor); settings: read-out: HDAC8 (FDL) percent enzyme inhibition
T1 sequence (Q9BY41 1-377): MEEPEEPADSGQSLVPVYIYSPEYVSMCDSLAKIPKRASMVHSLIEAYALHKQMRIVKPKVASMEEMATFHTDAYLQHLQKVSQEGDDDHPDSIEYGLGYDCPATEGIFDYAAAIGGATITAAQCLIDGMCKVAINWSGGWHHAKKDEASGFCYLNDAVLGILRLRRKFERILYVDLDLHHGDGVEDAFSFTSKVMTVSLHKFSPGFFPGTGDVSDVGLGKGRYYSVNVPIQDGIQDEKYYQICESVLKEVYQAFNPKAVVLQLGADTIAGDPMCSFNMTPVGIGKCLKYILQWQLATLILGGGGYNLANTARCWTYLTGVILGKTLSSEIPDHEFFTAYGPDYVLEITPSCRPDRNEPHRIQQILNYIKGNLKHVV

zebrafish HDAC10 = target: T2, zebrafish HDAC10 (Danio rerio, UniProt F1QCV2); experiment: Zebrafish HDAC10 assay (zHDAC10), Ac-spermidine-AMC substrate; assay type: biochemical; settings: read-out: zHDAC10 percent enzyme inhibition
T2 sequence (F1QCV2 1-675): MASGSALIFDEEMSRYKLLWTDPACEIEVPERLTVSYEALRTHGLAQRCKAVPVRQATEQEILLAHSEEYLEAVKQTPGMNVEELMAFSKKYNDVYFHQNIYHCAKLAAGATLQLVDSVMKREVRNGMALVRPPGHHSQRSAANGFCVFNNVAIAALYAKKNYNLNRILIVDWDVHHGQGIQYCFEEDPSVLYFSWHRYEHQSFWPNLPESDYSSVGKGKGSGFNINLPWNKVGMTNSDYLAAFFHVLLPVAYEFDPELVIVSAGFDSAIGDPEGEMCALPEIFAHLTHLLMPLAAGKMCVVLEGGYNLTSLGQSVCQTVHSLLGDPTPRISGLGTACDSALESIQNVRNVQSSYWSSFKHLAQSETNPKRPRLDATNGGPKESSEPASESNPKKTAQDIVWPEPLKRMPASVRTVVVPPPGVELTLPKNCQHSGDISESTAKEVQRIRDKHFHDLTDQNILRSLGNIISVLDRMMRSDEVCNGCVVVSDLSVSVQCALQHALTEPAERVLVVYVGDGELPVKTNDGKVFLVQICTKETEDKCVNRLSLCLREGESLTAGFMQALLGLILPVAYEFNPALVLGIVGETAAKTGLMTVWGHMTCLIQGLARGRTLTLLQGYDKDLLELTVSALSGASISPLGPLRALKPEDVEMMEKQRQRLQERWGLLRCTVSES

HDAC1 [2] = target: T3, HDAC1 (Homo sapiens, UniProt Q13547); experiment: HDAC1 (ZMAL) fluorogenic activity assay; assay type: biochemical; settings: read-out: HDAC1 (ZMAL) percent enzyme inhibition
T3 construct: purchased BPS Bioscience 50051

HDAC6 [3] = target: T4, HDAC6 (Homo sapiens, UniProt Q9UBN7); experiment: HDAC6 (ZMAL) fluorogenic activity assay; assay type: biochemical; settings: read-out: HDAC6 (ZMAL) percent enzyme inhibition
T4 construct: purchased BPS Bioscience 50006
T4 sequence (Q9UBN7 1-1215): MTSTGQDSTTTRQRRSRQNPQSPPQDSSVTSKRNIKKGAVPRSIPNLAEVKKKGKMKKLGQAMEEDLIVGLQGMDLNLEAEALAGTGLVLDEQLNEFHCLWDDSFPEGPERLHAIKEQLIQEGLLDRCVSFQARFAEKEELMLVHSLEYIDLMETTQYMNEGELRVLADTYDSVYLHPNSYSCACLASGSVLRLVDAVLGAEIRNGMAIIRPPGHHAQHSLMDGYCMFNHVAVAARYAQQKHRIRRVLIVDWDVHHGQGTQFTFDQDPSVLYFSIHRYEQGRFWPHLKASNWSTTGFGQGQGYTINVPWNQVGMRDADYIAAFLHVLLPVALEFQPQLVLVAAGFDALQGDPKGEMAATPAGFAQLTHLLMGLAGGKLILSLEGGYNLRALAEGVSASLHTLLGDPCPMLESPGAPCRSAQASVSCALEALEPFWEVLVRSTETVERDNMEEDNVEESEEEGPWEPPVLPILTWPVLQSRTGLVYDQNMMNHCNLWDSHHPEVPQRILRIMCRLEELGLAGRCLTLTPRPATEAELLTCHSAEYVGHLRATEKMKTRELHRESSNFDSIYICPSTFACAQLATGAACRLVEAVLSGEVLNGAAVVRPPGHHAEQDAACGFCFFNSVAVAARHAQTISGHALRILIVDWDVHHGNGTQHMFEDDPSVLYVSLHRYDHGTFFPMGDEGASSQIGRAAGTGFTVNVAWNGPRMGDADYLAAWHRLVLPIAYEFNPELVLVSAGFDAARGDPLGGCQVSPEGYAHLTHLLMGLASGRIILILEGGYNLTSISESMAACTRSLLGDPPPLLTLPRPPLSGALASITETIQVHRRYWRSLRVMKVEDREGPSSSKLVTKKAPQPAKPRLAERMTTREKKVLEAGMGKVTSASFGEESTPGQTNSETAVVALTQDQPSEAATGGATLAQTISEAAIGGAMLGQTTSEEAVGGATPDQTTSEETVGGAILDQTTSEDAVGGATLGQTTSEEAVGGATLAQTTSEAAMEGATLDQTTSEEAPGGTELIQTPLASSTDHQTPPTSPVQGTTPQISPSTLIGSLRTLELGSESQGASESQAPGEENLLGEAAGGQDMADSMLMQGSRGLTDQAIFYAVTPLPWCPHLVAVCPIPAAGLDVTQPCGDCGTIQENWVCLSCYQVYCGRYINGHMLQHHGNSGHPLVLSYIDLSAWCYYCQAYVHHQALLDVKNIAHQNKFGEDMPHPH

[4] = target: T5, HDAC10-nanoluciferase fusion in HeLa cells (Homo sapiens, UniProt Q969S8); experiment: BRET intracellular target engagement assay, HDAC10; settings: for HDAC10/6 fold selectivity (BRET): HDAC10 over HDAC6, from BRET
T5 sequence (Q969S8 1-669): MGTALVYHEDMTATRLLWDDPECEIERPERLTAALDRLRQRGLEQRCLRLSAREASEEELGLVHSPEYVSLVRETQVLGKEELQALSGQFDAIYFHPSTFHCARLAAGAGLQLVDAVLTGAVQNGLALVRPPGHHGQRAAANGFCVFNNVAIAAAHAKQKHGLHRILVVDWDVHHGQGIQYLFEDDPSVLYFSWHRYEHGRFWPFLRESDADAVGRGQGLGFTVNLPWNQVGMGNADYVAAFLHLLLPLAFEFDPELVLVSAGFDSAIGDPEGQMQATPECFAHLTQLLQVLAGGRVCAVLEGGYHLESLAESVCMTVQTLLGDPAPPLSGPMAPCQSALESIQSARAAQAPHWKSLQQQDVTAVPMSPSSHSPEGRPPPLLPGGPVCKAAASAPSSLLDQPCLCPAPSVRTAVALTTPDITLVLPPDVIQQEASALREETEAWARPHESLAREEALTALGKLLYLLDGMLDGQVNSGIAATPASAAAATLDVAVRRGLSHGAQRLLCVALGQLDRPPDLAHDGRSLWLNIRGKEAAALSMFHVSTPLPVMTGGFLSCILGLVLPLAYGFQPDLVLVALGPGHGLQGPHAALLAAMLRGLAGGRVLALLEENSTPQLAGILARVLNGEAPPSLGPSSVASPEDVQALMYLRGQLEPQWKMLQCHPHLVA

TwinStrep-GST-HDAC10 = target: T6, TwinStrep-GST-HDAC10 (Homo sapiens, UniProt Q969S8); experiment: HDAC10 TR-FRET assay (Tubastatin-AF647-Tracer displacement); assay type: binding
T6 construct: made in house; host or cells: Sf21 insect cells (baculovirus, pFastBac1)
T6 sequence (Q969S8 1-669): T5 sequence (Q969S8 1-669)

HDAC3/NcoR2 complex = target: T7, HDAC3/NcoR2 complex (Homo sapiens, UniProt O15379); experiment: HDAC-Glo I/II assay, HDAC3/NcoR2 complex; assay type: biochemical; settings: recombinant human HDAC3/NcoR2 complex, read-out: pIC50 HDAC3 Glo (converted)
T7 construct: purchased BPS Bioscience 50003

[5] = target: T8, HDAC6 (2nd catalytic domain)-nanoluciferase fusion in HeLa cells (Homo sapiens, UniProt Q9UBN7); experiment: BRET intracellular target engagement assay, HDAC6
T8 sequence (Q9UBN7 482-800 limits assumed): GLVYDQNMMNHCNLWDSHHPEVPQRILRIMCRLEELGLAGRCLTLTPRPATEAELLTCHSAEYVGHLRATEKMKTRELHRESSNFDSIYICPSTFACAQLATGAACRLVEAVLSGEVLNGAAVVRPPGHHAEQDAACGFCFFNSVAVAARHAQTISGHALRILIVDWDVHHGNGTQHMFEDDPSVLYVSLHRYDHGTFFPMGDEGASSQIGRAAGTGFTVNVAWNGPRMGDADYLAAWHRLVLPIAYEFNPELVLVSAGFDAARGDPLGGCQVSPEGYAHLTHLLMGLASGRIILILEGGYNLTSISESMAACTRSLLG

HDAC2 = target: T9, HDAC2 (Homo sapiens, UniProt Q92769); experiment: HDAC-Glo I/II assay, HDAC2; assay type: biochemical; settings: recombinant human HDAC2, HDAC-Glo; read-out: pIC50 HDAC2 Glo (converted)
T9 construct: purchased BPS Bioscience 50002

HDAC8 [6] = target: T1, HDAC8; experiment: HDAC-Glo I/II assay, HDAC8; assay type: biochemical; parameters: purchased BPS Bioscience 50008; settings: recombinant human HDAC8, HDAC-Glo; read-out: pIC50 HDAC8 Glo (converted)
HDAC1 [7] = target: T3, HDAC1; experiment: HDAC-Glo I/II assay, HDAC1; assay type: biochemical; settings: recombinant human HDAC1, HDAC-Glo; read-out: pIC50 HDAC1 Glo (converted)
HDAC6 [8] = target: T4, HDAC6; experiment: HDAC-Glo I/II assay, HDAC6; assay type: biochemical; settings: recombinant human HDAC6, HDAC-Glo; read-out: pIC50 HDAC6 Glo (converted)
[9] = TR-FRET, 60 min at rt, read-out: pIC50 HDAC10 FRET (converted)

T9 sequence (Q92769 whole entry): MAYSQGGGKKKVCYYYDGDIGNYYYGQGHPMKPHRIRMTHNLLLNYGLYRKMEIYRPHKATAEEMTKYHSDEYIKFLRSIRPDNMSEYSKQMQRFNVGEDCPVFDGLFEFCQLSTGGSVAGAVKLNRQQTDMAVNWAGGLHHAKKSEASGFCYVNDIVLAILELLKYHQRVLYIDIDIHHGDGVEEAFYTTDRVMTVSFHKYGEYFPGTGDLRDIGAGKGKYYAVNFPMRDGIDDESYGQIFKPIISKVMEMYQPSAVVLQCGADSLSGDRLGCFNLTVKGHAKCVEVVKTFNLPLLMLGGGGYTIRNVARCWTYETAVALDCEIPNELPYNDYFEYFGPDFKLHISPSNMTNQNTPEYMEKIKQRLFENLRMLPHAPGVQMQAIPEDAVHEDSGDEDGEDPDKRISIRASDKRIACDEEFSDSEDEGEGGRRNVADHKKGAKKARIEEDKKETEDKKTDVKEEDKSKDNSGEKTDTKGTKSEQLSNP
T3 sequence (Q13547 whole entry): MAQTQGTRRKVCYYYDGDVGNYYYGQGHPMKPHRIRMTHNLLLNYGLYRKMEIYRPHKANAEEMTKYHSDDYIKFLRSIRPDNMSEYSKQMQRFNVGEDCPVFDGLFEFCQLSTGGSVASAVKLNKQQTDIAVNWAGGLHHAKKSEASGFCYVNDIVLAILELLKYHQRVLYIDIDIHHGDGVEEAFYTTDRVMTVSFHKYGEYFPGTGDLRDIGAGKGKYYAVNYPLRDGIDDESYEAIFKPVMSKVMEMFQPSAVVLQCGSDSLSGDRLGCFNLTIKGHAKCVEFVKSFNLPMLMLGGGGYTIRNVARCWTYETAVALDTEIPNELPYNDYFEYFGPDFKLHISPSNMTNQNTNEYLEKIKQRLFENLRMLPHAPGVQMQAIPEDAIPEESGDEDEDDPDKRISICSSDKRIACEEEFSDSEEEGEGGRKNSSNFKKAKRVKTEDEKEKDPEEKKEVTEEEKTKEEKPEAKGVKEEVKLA
T7 sequence (O15379 whole entry): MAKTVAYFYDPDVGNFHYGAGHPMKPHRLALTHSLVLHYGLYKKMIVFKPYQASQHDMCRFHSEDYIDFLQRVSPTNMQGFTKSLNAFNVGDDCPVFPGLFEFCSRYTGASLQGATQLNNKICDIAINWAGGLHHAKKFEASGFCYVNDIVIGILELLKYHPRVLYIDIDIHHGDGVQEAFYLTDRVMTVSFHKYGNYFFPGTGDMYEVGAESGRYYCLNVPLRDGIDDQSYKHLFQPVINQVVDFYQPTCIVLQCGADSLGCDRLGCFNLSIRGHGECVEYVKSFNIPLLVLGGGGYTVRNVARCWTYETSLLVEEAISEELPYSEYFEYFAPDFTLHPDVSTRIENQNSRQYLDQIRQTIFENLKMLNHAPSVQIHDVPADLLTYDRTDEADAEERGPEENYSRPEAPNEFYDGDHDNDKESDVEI
T7 sequence (Q9Y618 395-489 partner limits assumed): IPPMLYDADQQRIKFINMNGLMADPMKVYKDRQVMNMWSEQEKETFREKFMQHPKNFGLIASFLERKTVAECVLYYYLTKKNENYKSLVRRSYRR

Compound	inhibition at 1 µM (HDAC8 [1]) [%]	inhibition at 10 µM (HDAC8 [1]) [%]	inhibition at 0.1 µM (zebrafish HDAC10) [%]	inhibition at 1 µM (zebrafish HDAC10) [%]	inhibition at 10 µM (zebrafish HDAC10) [%]	inhibition at 1 µM (HDAC1 [2]) [%]	inhibition at 10 µM (HDAC1 [2]) [%]	inhibition at 1 µM (HDAC6 [3]) [%]	inhibition at 10 µM (HDAC6 [3]) [%]	IC50 [4] [µM]	IC50 (HDAC3/NcoR2 complex) [µM]	IC50 [5] [µM]	IC50 (HDAC2) [µM]	IC50 (HDAC8 [6]) [µM]	IC50 (HDAC1 [7]) [µM]	IC50 (HDAC6 [8]) [µM]	also measured
O=C(NO)C1CCN(CCc2cccc(Br)c2)CC1 [DH71, 1-(3-Bromophenethyl)-N-hydroxypiperidine-4-carboxamide]	27	70	0	10	61	-5	6	-2	28	0.391	–	–	–	–	–	–	–
O=C(NO)C1CCN(CCc2ccc(Br)cc2)CC1 [DH67, 1-(4-Bromophenethyl)-N-hydroxypiperidine-4-carboxamide]	33	69	7	40	67	7	6	-4	18	0.375	–	–	–	–	–	–	–
O=C(NO)C1CCN(CC(c2ccccc2)c2ccccc2)CC1 [DH40, 1-(2,2-Diphenylethyl)-N-hydroxypiperidine-4-carboxamide]	42	75	1	9	27	-7	8	19	65	–	–	–	–	–	–	–	IC50 (TwinStrep-GST-HDAC10; two separate measurements, each made in triplicate, read-out: HDAC10 FRET IC50): 2.32 µM and 2.97 µM; inhibition at 50 µM (HDAC1 [2]; at 50 μM): 24%; inhibition at 50 µM (HDAC6 [3]; at 50 μM): 88%

More lines, main results first:

inhibition at 1 µM (HDAC8 [1]) [%]	inhibition at 10 µM (HDAC8 [1]) [%]	inhibition at 0.1 µM (zebrafish HDAC10) [%]	inhibition at 1 µM (zebrafish HDAC10) [%]	inhibition at 10 µM (zebrafish HDAC10) [%]	inhibition at 1 µM (HDAC1 [2]) [%]	inhibition at 10 µM (HDAC1 [2]) [%]	inhibition at 1 µM (HDAC6 [3]) [%]	inhibition at 10 µM (HDAC6 [3]) [%]	IC50 [4] [µM]	IC50 (HDAC3/NcoR2 complex) [µM]	IC50 [5] [µM]	IC50 (HDAC2) [µM]	IC50 (HDAC8 [6]) [µM]	IC50 (HDAC1 [7]) [µM]	IC50 (HDAC6 [8]) [µM]	Compound	also measured
–	–	–	–	–	–	–	–	–	0.501	~100	10	~126	2.51	25.1	1	O=C(CCCN(CCC(=O)Nc1ccccc1)Cc1ccccc1)NO [DKFZ-718, 4-(Benzyl(3-oxo-3-(phenylamino)propyl)amino)-N-hydroxybutanamide]	IC50 (TwinStrep-GST-HDAC10; [9]): 2 µM; HDAC10/6 fold selectivity (BRET) [4]: 25 fold
–	–	–	–	–	–	–	–	–	1	~200	> 39.8	> 200	7.94	79.4	5.01	CCCN(CCCC(=O)NO)CCC(=O)Nc1ccccc1 [DKFZ-716, 4-(Propyl(3-oxo-3-(phenylamino)propyl)amino)-N-hydroxybutanamide]	IC50 (TwinStrep-GST-HDAC10; [9]): 0.316 µM; HDAC10/6 fold selectivity (BRET) [4]: ~366 fold
–	–	–	–	–	–	–	–	–	–	–	3.98	3.98	0.794	2	0.631	CN(CCCC(=O)NO)CCNC(=O)c1c2ccccc2cc2ccccc12 [DKFZ-771, N-(2-((4-(Hydroxyamino)-4-oxobutyl)(methyl)amino)ethyl)anthracene-9-carboxamide]	–
–	–	–	–	–	–	–	–	–	–	> 100	> 39.8	–	25.1	50.1	12.6	CN(CCCC(=O)NO)CCCC(=O)Nc1ccccc1 [DKFZ-775, N-Hydroxy-4-(methyl(4-oxo-4-(phenylamino)butyl)amino)butanamide]	–
